The text below walks through data of paper PMC3172300, “Modulation of Catalytic Activity in Multi-Domain Protein Tyrosine Phosphatases” (PLoS ONE, 2011).

One assay deals with T1, DLAR D2 (Drosophila melanogaster, UniProt P16621).
T1 construct: DLAR 1728-2029; His tag (pET-15b or pET-22b); made in house; host or cells: E. coli BL21(DE3)
T1 sequence (P16621 1728-2029): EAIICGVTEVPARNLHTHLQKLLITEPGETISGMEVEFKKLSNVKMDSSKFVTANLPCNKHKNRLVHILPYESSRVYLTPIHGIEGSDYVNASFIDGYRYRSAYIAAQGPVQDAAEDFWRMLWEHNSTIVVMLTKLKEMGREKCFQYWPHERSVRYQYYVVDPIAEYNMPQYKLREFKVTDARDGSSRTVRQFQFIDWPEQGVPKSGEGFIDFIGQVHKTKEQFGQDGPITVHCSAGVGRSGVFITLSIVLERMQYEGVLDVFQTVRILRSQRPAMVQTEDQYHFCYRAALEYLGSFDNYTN
Nature of the assay: Surface Plasmon Resonance peptide binding, DLAR D2. As to conditions: column second binding site, single-site model. Here is the method: The binding of phosphotyrosine peptides to the PTP domains was studied by Surface Plasmon Resonance on a Biacore-2000 instrument (BIAcore, AB). All experiments were conducted at 25°C. DLAR PTP domains were immobilized onto carboxylated dextran CM5 chips (BIAcore AB) using the standard amine coupling procedure as recommended by the manufacturer. Binding and kinetic assays were performed in 10 mM HEPES, pH 8.0, 150 mM NaCl, 10 mM DTT and 3 mM EDTA at a flow rate of 5 µL/min. The peptides were used at concentrations ranging from 50–700 µM. Dissociation was initiated by replacing the analyte with buffer. The association and dissociation curves were monitored for 600 sec. Sensograms were analyzed with BIA-evaluation software version 2 (BIAcore AB). Sensograms for DLAR D1D2, DLAR D1HSSD2 and DLAR D1D2HSS were fitted to two-site binding equations. DLAR D1 and DLAR D2 sensograms were fitted using a single-site binding model.

For the next assay, the target named is T2, DLAR D1 D2HSS (Drosophila melanogaster, UniProt P16621, C1961S).
T2 construct: DLAR 1448-2029; His tag (pET-15b or pET-22b); made in house; host or cells: E. coli BL21(DE3)
In words: Phosphatase assay using pNPP, DLAR D1 D2HSS. It is filed as biochemical. As to conditions: CGH buffer pH 6.5, 100 mM NaCl, 2 mM DTT. Here is the method:
(§1) Phosphatase activity of the recombinant PTP domains was determined by using para-Nitrophenylphosphate (pNPP), a small molecule generic substrate, as well as phosphotyrosine containing peptides. The pNPP assay was performed as reported previously, with a modification in the buffer composition (25 mM Citrate, Glycine and HEPES (CGH), pH 6.5, 100 mM NaCl and 2 mM DTT). Phosphatase activity with the phosphotyrosine peptides was ascertained by the malachite green reaction as described for PTPs previously. Briefly, the reaction mixture comprised of 0.01 µM protein incubated with increasing concentrations of different peptides in 25 mM citrate buffer pH 6.0, 100 mM NaCl and 2 mM DTT for 15 min at 25°C. The reaction was stopped by the addition of the Biomol Green reagent (Enzo Life Sciences) and the colour developed after 20 min was quantified at 650 nm. For all the assays, kinetic constants for the steady state catalysis were obtained by fitting the reaction curves to the Michaelis-Menten equation using the nonlinear regression module of Sigma plot software (Systat Software, Inc.).
(§2) The tandem PTP domains of PTP99A (PTP99A D1D2) and DLAR (DLAR D1D2) , the individual PTP domains (D1 and D2) as well as the active site mutants were expressed in E. coli and were purified using the protocols described earlier (Figure 1a, Figure S1a, b & c). The biochemical characterization and catalytic activity measurements were performed using pNPP as a substrate. […] Thus the D2 domain appears to have a regulatory role in both RPTPs- decreasing the catalytic activity in the case of DLAR while increasing the catalytic activity in the case of PTP99A (Figure 1b).

For assay [1], the system named is DLAR D1 active site cysteine to serine mutant. In words: Phosphatase assay using pNPP, DLAR D1 active site Cys to Ser mutant. As to conditions: active site cysteine to serine in D1. The class given is biochemical, Drosophila melanogaster. From the text: Cosmids containing the genes encoding RPTPs DLAR and PTP99A were a kind gift from Prof. Kai Zinn (Caltech). The PTP domains of PTP99A and DLAR were PCR amplified and ligated between the NheI and XhoI restriction sites of the bacterial expression vectors pET-15b and pET-22b. The active site mutants (with the nucleophilic cysteines in the PTP domains of DLAR and PTP99A mutated to serines) were obtained by using a single primer approach. An XbaI site was incorporated in the primers to aid screening of mutants. All clones were confirmed by sequencing (Macrogen Inc.). The details of the expression constructs are compiled in Table S1 and Figure 1a.
Phosphatase activity of the recombinant PTP domains was determined by using para-Nitrophenylphosphate (pNPP), a small molecule generic substrate, as well as phosphotyrosine containing peptides. The pNPP assay was performed as reported previously, with a modification in the buffer composition (25 mM Citrate, Glycine and HEPES (CGH), pH 6.5, 100 mM NaCl and 2 mM DTT). Phosphatase activity with the phosphotyrosine peptides was ascertained by the malachite green reaction as described for PTPs previously. […] The reaction was stopped by the addition of the Biomol Green reagent (Enzo Life Sciences) and the colour developed after 20 min was quantified at 650 nm. […]

The target in the next assay is T3, PTP99A D1D2 (Drosophila melanogaster, UniProt P35832).
T3 sequence (P35832 450-1050): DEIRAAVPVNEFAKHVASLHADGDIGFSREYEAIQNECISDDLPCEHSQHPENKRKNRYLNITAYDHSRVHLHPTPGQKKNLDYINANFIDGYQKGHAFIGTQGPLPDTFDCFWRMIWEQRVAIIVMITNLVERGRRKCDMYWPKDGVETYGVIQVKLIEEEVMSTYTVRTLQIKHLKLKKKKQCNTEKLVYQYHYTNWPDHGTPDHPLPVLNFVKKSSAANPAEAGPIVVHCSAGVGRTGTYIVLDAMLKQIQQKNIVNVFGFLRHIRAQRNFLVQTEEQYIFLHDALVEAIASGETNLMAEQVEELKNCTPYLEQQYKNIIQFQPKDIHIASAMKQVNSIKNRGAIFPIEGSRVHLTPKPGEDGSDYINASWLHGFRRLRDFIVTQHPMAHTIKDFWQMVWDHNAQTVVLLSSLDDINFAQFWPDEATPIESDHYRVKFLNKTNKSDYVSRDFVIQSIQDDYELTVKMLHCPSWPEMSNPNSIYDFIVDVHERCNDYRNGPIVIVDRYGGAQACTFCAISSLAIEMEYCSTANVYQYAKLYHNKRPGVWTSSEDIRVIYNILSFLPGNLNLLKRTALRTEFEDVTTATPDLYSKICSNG
In words: Phosphatase assay using pNPP, PTP99A D1D2. It is filed as biochemical. Further details: PTP99A 450-1050; His tag (pET-15b or pET-22b); made in house; host or cells: E. coli BL21(DE3). As to conditions: CGH buffer pH 6.5, 100 mM NaCl, 2 mM DTT. On the procedure:
as §1, §2

Several values for one entry are separate records, joined by “and”; a condition that tells them apart may be missing. Equal values may be shown once. Square brackets hold non-standard residues; d marks the D form. Peptide text beside a SMILES is read from it. pY = N[C@@H](Cc1ccc(OP(=O)(O)O)cc1)C(=O)O

T2 sequence (P16621 1448-2029 C1961S): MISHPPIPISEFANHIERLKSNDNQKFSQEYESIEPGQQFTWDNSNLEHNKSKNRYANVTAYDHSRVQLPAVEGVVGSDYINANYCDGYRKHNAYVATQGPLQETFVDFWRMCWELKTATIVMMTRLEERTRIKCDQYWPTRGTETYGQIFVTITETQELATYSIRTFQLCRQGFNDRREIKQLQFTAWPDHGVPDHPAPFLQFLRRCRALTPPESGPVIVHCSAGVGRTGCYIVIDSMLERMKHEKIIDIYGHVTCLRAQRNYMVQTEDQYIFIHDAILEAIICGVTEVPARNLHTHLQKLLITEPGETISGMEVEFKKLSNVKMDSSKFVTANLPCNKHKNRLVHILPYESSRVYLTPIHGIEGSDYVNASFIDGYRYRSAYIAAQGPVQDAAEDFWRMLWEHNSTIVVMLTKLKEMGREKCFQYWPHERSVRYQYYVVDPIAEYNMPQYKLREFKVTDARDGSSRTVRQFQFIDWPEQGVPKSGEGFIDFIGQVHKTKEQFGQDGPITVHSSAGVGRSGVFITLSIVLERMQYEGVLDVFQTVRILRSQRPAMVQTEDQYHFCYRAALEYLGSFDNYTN

For `CC(C)C[C@H](NC(=O)[C@H](C)NC(=O)CNC(=O)[C@H](Cc1ccc(OP(=O)(O)O)cc1)NC(=O)[C@H](CC(=O)O)NC(=O)[C@@H]1CCCN1C(=O)[C@H](CCC(=O)O)NC(=O)[C@H](C)NC(=O)[C@@H](N)[C@@H](C)O)C(=O)N[C@@H](Cc1ccc(O)cc1)C(=O)N[C@@H](CCC(=O)O)C(=O)O` [Cuticle peptide] (H-TAEPD[pY]GALYE-OH), the kon on DLAR D2 (SPR Biacore-2000, 25°C, 10 mM HEPES pH 8.0, 150 mM NaCl, 10 mM DTT, 3 mM EDTA, peptides 50–700 µM, read-out: ka) is 52.8 ± 0.69 M⁻¹ s⁻¹. Further, the Kd at DLAR D2 (SPR, 25°C, pH 8.0) came out at 104.5 ± 0.06 µM.
Take `O=[N+]([O-])c1ccc(OP(=O)(O)O)cc1` [pNPP, para-Nitrophenylphosphate]: the Kcat at DLAR D1 D2HSS is 6.49 ± 0.17 s⁻¹; on PTP99A D1D2, 33.80 ± 0.59 s⁻¹. For the same compound, the Kcat/Km on DLAR D1 D2HSS is given as 1.97 ± 0.10 x 10^3 sec^-1M^-1; at PTP99A D1D2, 14.92 ± 0.98 x 10^3 sec^-1M^-1. Also, the Vmax at DLAR D1 D2HSS (Michaelis-Menten fit) is 5.84 ± 0.15 µmol/min/mg; on PTP99A D1D2 (Michaelis-Menten fit), 24.89 µmol/min/mg and 24.89 ± 0.52 µmol/min/mg. In addition, the PTPase activity result in assay [1] was “inactive enzyme”.

The term Kd denotes a measure of binding affinity in units of concentration. A lower Kd goes with a tighter complex. For orientation: Vmax means the rate approached at saturating substrate.
